The term IC50 denotes the concentration that inhibits the measured activity by half. Read a high IC50 as a need for much substance.

Consider eight compounds from patent EP4703365A1, “QUINOLONE DERIVATIVE AND USE THEREOF AGAINST TUMORS” (Horizon Omics Biotech Limited, priority 2023, dated 2024).

The target of data set [1] is hERG (Homo sapiens, UniProt Q12809). The data set can be described thus: hERG cardiotoxicity assay (patch clamp, hERG stably expressed HEK 293 cell line). In kind it is cell-based. To be noted: 5 doses applied cumulatively. On the procedure:
• 1) The hERG stably expressed HEK 293 cell line (Cat# K1236) was purchased from Invitrogen. Cells were cultured in a medium consisting of 85% DMEM, 10% FBS, 0.1 mM NEAA, 25 mM HEPES, 100 U/mL penicillin-streptomycin, 5 µg/mL Blasticidin, and 400 µg/mL Geneticin. Cells were passaged approximately three times a week using TrypLE™ Express and maintained at ~40% to ~80% confluency. Before assay, cells were placed on coverslips with 5×10^5 cells per 6-cm cell culture dish and induced with 1 µg/mL doxycycline for 48 hours. • 2) The coverslip was removed from the cell culture dish and placed on the microscope stage. A suitable cell was located using a 10× objective. The tip of the electrode was located under the microscope using the 10× objective, and the focus was adjusted to the plane of the cell. Once the tip was in focus, the coarse control of the manipulator was used to advance the electrode downward toward the cell while moving the objective to keep the tip in focus. When directly above the cell, the objective was switched to 40× objective, and the fine control of the manipulator was used to approach the cell surface in small steps. • 3) A blank control was first performed to establish a baseline. […] In the presence of the test compounds, the hERG current was recorded for approximately 5 minutes to reach a steady state, followed by capturing 5 scans. For dose-response testing, 5 doses of the test compounds were cumulatively applied to the cells from low to high concentrations. The positive control, dofetilide at a concentration of 150 nM, was applied to each cell, and the hERG current was measured in the test compounds at the highest concentration as a negative control to normalize the percentage of inhibition. To ensure good performance of the cultured cells and operations, cells from the same batch were also tested with 5 doses of dofetilide. Table 4. hERG Toxicity Assay Results
(In general: Block of hERG is tested as a sign of cardiac risk.)

For data set [2], the system named is DLD1 BRCA2^-/-. Description: Cell activity assay (CellTiterGlo, 6 days), BRCA2 gene knockout DLD1 cancer cells. The format is cell-based. To be noted: Homo sapiens, DLD-1, 144 h, 6 days incubation. On the procedure: (§1) • (1) Compound Treatment • a) Preparation of Stock Solutions of Compounds Test compounds were dissolved in DMSO at a concentration of 10 mM or 5 mM, and Olaparib was dissolved in DMSO at a concentration of 10 mM. • b) Compound Storage All compounds dissolved in DMSO were stored in a desiccator at room temperature for short-term storage and transferred to a -20°C refrigerator for long-term storage. • c) Preparation of Working Concentrations of Compounds
(§2) Test compounds were serially diluted in DMSO at a 3-fold gradient to prepare 10 concentration gradients, starting from 10 µM.
(§3) Olaparib was serially diluted in DMSO at a 3-fold gradient to prepare 10 concentration gradients, starting from 10 µM.
(§4) The 384-well plate loaded with the compounds was centrifuged at 1000 rpm for 1 minute.
(§5) • a) Cells were added to the culture medium and incubated in a cell culture incubator at 37°C with 5% CO2. • b) 40 µL of BRCA1- or BRCA2-deficient cells were added to a 384-well plate and incubated overnight at 37°C with 5% CO2. • c) The test compounds were prepared at different concentration gradients on the master plate, and 80 nL of the test compounds and Olaparib were taken from the master plate and added to the 384-well plate containing cells, and incubated at 37°C with 5% CO2 for 6 days. • d) CellTiterGlo (30 µL per well) was added to the 384-well plate, and after incubation at room temperature in the dark for 30 minutes, measurement was performed using an Envision plate reader.
(§6) • a) GraphPad Prism software was used to calculate the ICso and plot the activity curves as a function of concentration. • b) The inhibition of cell activity by the compounds was calculated using the following formula: % Inhibition = [1−(Cmpd−Blank)/(DMSO−Blank)]* 100 [formula]
In general terms: Cellular ATP, detected with luciferase, serves as a proxy for viable cell number.

Data set [3] deals with UWB1.289 Cells. Description: Cell activity assay (CellTiterGlo, 6 days), BRCA1 gene-deficient ovarian cancer cells UWB1.289. To be noted: UWB1289, 144 h, BRCA1 gene-deficient ovarian cancer cells UWB1.289, 6 days incubation. The format is cell-based. How it is done: as §1, §2, §3, §4, §5, §6
Data set [4] has as its system MDA-MB-436. Description: Cell activity assay (CellTiterGlo, 6 days), BRCA1 gene-deficient MDA-MB-436 cells. The format is cell-based. To be noted: Homo sapiens, 144 h, BRCA1 gene-deficient MDA-MB-436, 6 days incubation. How it is done:
as §1, §2, §3, §4, §5, §6

The subject of data set [5] is solid tumors. As to conditions: NCT02719977, solid tumors in humans; cited from earlier work.

Sequence of hERG (Q12809 whole entry): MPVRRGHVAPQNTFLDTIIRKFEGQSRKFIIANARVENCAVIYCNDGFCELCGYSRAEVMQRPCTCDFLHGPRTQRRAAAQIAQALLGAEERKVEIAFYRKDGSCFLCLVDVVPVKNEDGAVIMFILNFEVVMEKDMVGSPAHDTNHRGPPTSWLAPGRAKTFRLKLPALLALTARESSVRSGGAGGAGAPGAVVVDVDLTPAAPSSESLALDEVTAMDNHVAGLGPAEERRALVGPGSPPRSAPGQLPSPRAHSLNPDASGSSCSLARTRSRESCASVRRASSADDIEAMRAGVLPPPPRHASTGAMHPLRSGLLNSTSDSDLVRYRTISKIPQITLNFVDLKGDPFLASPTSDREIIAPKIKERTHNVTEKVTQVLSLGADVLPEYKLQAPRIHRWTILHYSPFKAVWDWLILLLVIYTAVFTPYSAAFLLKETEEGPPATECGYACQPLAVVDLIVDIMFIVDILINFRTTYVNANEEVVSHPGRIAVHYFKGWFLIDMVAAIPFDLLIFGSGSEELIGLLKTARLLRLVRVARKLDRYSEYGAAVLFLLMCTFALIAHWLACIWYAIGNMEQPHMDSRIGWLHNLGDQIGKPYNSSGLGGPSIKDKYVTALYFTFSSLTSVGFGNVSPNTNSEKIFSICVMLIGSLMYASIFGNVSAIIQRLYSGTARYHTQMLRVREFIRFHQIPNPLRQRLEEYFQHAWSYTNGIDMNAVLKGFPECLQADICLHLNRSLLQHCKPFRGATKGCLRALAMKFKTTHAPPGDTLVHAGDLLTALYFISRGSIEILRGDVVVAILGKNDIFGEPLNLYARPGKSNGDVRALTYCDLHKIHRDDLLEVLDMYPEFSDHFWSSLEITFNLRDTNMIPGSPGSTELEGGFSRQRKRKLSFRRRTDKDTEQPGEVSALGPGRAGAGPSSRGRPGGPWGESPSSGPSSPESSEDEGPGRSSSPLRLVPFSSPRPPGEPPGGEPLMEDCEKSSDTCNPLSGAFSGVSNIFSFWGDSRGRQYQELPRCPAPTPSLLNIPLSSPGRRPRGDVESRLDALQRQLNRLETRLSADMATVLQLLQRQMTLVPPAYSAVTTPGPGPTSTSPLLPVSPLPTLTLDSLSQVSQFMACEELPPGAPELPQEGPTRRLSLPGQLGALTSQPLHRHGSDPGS

`CN1CCCN(c2ccc3c(=O)c(C(=O)NCc4ccc(=O)[nH]n4)c4sc5ccccc5n4c3n2)CC1` [Compound G-1]: the IC50 in data set [1] was above 30 µM; in data set [2], 32.7 nM; in data set [3] it was 40.4 nM.
On to `CN1CCCN(c2ccc3c(=O)c(C(=O)NCCN4CCC4)c4sc5ccccc5n4c3n2)CC1` [Compound C], for which the half-maximal inhibitory concentration (IC50) in data set [2] is 4.8 nM; in data set [3] it was 4.9 nM.
The matching figures for `CN1CCCN(c2ccc3c(=O)c(C(=O)NCCN4CCCC4)c4sc5ccccc5n4c3n2)CC1` [Compound D]: 4.3 nM and 5.8 nM.
For `CN1CCCN(c2ccc3c(=O)c(C(=O)NCc4n[nH]c(=O)c5ccccc45)c4sc5ccccc5n4c3n2)CC1` [Compound G-2], in data set [1], the IC50 is above 10 µM.
Turning to `CN1CCCN(c2ccc3c(=O)c(C(=O)NC4CC4)c4sc5ccccc5n4c3n2)CC1` [Compound F], the figures for the IC50 in data set [2] and in data set [3] were 17.2 nM and 40.6 nM, respectively.
Consider `O=C(c1cc(Cc2n[nH]c(=O)c3ccccc23)ccc1F)N1CCN(C(=O)C2CC2)CC1` [Olaparib, reference compound], for which the half-inhibitory concentration (IC50) in data set [4] came to 240 nM; in data set [3], 716 nM.
Consider `CNC(=O)c1c(=O)c2ccc(N3CCCN(C)CC3)nc2n2c1sc1ccccc12` [Compound E], for which the IC50 in data set [4] is 7.7 nM; in data set [2], 11 nM; in data set [3], 39.8 nM.
Regarding `Cc1cnc(CNC(=O)c2c(=O)c3ccc(N4CCCN(C)CC4)nc3n3c2sc2ccccc23)cn1` [CX-5461], the adverse effects observed result in data set [5] was “phototoxicity, neutropenia, acral erythema, and nausea”. For the same compound, the IC50 in data set [1] came to 5.06 µM; in data set [4], 10 nM.
